Test results published in patent US8889874B2, “Imidazolone-chalcone derivatives as potential anticancer agent and process for the preparation thereof” (Council of Scientific and Industrial Research, priority 2010, dated 2014).
Read-outs that look alike come from different tables or passages of the source.

What was measured:
Format in all cases: cell-based, human
[1] = tested on: Non-small cell lung cancer cell lines; test: NCI anticancer screen, SRB assay, panel summary; conditions: Homo sapiens
Procedure, shortened: (§1)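 Sulforhodamine B protein assay read cell growth after 48 h of continuous compound exposure. Dose-response curves per cell line used at least five 10-fold-diluted concentrations, within a panel of fifty-three human lines from nine tumour types.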

[2] = tested on: Renal cancer cell lines; test: NCI anticancer screen, SRB assay, panel summary; conditions: Homo sapiens
Procedure, shortened: as §1

[3] = tested on: Leukemia cancer cell lines; test: NCI anticancer screen, SRB assay, panel summary; conditions: Homo sapiens
Procedure, shortened: as §1

[4] = tested on: Prostate cancer cell lines; test: NCI anticancer screen, SRB assay, panel summary
Procedure, shortened: as §1

[5] = tested on: Melanoma cancer cell lines; test: NCI anticancer screen, SRB assay, panel summary; conditions: for GI50: Homo sapiens
Procedure, shortened: as §1

[6] = tested on: Ovarian cancer cell lines; test: NCI anticancer screen, SRB assay, panel summary; conditions: Homo sapiens
Procedure, shortened: as §1

[7] = tested on: Breast cancer cell lines; test: NCI anticancer screen, SRB assay, panel summary; conditions: Homo sapiens
Procedure, shortened: as §1

[8] = tested on: CNS cancer cell lines; test: NCI anticancer screen, SRB assay, panel summary; conditions: for GI50: Homo sapiens
Procedure, shortened: as §1

[9] = tested on: Colon cancer cell lines; test: NCI anticancer screen, SRB assay, panel summary; conditions: for GI50: Homo sapiens
Procedure, shortened: as §1

[10] = tested on: TK-10 (renal); test: NCI anticancer screen, SRB assay, 48 h; conditions: Homo sapiens
Procedure, shortened: as §1

[11] = tested on: HCC-2998 (colon); test: NCI anticancer screen, SRB assay, 48 h; conditions: Homo sapiens
Procedure, shortened: as §1

[12] = tested on: PC-3 (prostate); test: NCI anticancer screen, SRB assay, 48 h; conditions: Homo sapiens
Procedure, shortened: as §1

[13] = tested on: OVCAR-5 (ovarian); test: NCI anticancer screen, SRB assay, 48 h; conditions: Homo sapiens
Procedure, shortened: as §1

[14] = tested on: CAKI-1 (renal); test: NCI anticancer screen, SRB assay, 48 h; conditions: Homo sapiens
Procedure, shortened: as §1

[15] = tested on: OVCAR-3 (ovarian); test: NCI anticancer screen, SRB assay, 48 h; conditions: Homo sapiens
Procedure, shortened: as §1

[16] = tested on: UO-31 (renal); test: NCI anticancer screen, SRB assay, 48 h; conditions: Homo sapiens
Procedure, shortened: as §1

[17] = tested on: SK-MEL-5 (melanoma); test: NCI anticancer screen, SRB assay, 48 h; conditions: Homo sapiens
Procedure, shortened: as §1

[18] = tested on: SK-MEL-2 (melanoma); test: NCI anticancer screen, SRB assay, 48 h; conditions: Homo sapiens
Procedure, shortened: as §1

[19] = tested on: MDA-MB-435 (melanoma); test: NCI anticancer screen, SRB assay, 48 h; conditions: Homo sapiens
Procedure, shortened: as §1

[20] = tested on: HCT-15 (colon); test: NCI anticancer screen, SRB assay, 48 h; conditions: Homo sapiens
Procedure, shortened: as §1

[21] = tested on: A498 (renal); test: NCI anticancer screen, SRB assay, 48 h; conditions: Homo sapiens
Procedure, shortened: as §1

[22] = tested on: BT-549 (breast); test: NCI anticancer screen, SRB assay, 48 h; conditions: Homo sapiens
Procedure, shortened: as §1

[23] = tested on: NCI-H23 (non-small cell lung); test: NCI anticancer screen, SRB assay, 48 h; conditions: Homo sapiens
Procedure, shortened: as §1

[24] = tested on: NCI-H522 (non-small cell lung); test: NCI anticancer screen, SRB assay, 48 h; conditions: Homo sapiens
Procedure, shortened: as §1

[25] = tested on: TD-47D (breast); test: NCI anticancer screen, SRB assay, 48 h; conditions: Homo sapiens
Procedure, shortened: as §1

[26] = tested on: COLO 205 (colon); test: NCI anticancer screen, SRB assay, 48 h; conditions: Homo sapiens, COLO 205
Procedure, shortened: as §1

[27] = tested on: HOP-92 (non-small cell lung); test: NCI anticancer screen, SRB assay, 48 h; conditions: Homo sapiens
Procedure, shortened: as §1

[28] = tested on: SF-539 (CNS); test: NCI anticancer screen, SRB assay, 48 h; conditions: Homo sapiens
Procedure, shortened: as §1

[29] = tested on: NCI-H322M (non-small cell lung); test: NCI anticancer screen, SRB assay, 48 h; conditions: Homo sapiens
Procedure, shortened: as §1

[30] = tested on: EKVX (non-small cell lung); test: NCI anticancer screen, SRB assay, 48 h; conditions: Homo sapiens
Procedure, shortened: as §1

[31] = tested on: KM12 (colon); test: NCI anticancer screen, SRB assay, 48 h; conditions: Homo sapiens
Procedure, shortened: as §1

[32] = tested on: SN12C (renal); test: NCI anticancer screen, SRB assay, 48 h; conditions: Homo sapiens, SN12C
Procedure, shortened: as §1

[33] = tested on: A549/ATCC (non-small cell lung); test: NCI anticancer screen, SRB assay, 48 h; conditions: Homo sapiens
Procedure, shortened: as §1

[34] = 48 h exposure, SRB, read-out: GI50
[35] = read-out: pGI50 (-log of molar concentration causing 50% inhibition of net cell growth) (converted)

COc1cc(/C=C/C(=O)c2cccc(-n3cc(-c4ccc(Cl)cc4)[nH]c3=O)c2)ccc1O [3f, 4-(4-chlorophenyl)-1-3-[(E)-3-(4-hydroxy-3-methoxyphenyl)-2-propenoyl]phenyl-2,3-dihydro-1H-2-imidazolone]
GI50 ([1]; Non-small cell lung panel, log of concentration in mol/L causing 50% inhibition of net cell growth, read-out: mean graph midpoint (MG_MID) of Log10 GI50 (converted)): 3550 nM
LC50 ([1]; Non-small cell lung panel, log of concentration leading to 50% net cell death, read-out: mean graph midpoint (MG_MID) of Log10 LC50 (converted)): 85100 nM
GI50 ([1]; nine non-small cell lung cancer cell lines, exposure at least 48 hrs, read-out: GI50, range over the panel): 1260 to 9610 nM
GI50 ([2]; Renal panel, log of concentration in mol/L causing 50% inhibition of net cell growth, read-out: mean graph midpoint (MG_MID) of Log10 GI50 (converted)): 2950 nM
LC50 ([2]; Renal panel, log of concentration leading to 50% net cell death, read-out: mean graph midpoint (MG_MID) of Log10 LC50 (converted)): 63100 nM
GI50 ([2]; eight renal cancer cell lines, exposure at least 48 hrs, read-out: GI50, range over the panel): 1670 to 6400 nM
GI50 ([3]; Leukemia panel, log of concentration in mol/L causing 50% inhibition of net cell growth, read-out: mean graph midpoint (MG_MID) of Log10 GI50 (converted)): 1380 nM
LC50 ([3]; Leukemia panel, log of concentration leading to 50% net cell death, read-out: mean graph midpoint (MG_MID) of Log10 LC50 (converted)): 55000 nM
GI50 ([3]; two leukemia cancer cell lines (RPMI-8226 and K-562), exposure at least 48 hrs, read-out: GI50, range over the panel): 1330 to 1420 nM
GI50 ([4]; Homo sapiens, log of concentration in mol/L causing 50% inhibition of net cell growth, read-out: mean graph midpoint (MG_MID) of Log10 GI50 (converted)): 1950 nM
LC50 ([4]; Homo sapiens, log of concentration leading to 50% net cell death, read-out: mean graph midpoint (MG_MID) of Log10 LC50 (converted)): 66100 nM
mean graph midpoint (MG_MID) of Log10 TGI ([4]; log of concentration resulting in total inhibition of net cell growth): 5.20
GI50 ([5]; Melanoma panel, log of concentration in mol/L causing 50% inhibition of net cell growth, read-out: mean graph midpoint (MG_MID) of Log10 GI50 (converted)): 2820 nM
GI50 ([5]; nine melanoma cancer cell lines, exposure at least 48 hrs, read-out: GI50, range over the panel): 1630 to 8690 nM
mean graph midpoint (MG_MID) of Log10 LC50 ([5]; Melanoma panel, log of concentration leading to 50% net cell death): 4.32
GI50 ([6]; Ovarian panel, log of concentration in mol/L causing 50% inhibition of net cell growth, read-out: mean graph midpoint (MG_MID) of Log10 GI50 (converted)): 2750 nM
LC50 ([6]; Ovarian panel, log of concentration leading to 50% net cell death, read-out: mean graph midpoint (MG_MID) of Log10 LC50 (converted)): 43700 nM
GI50 ([6]; six ovarian cancer cell lines, exposure at least 48 hrs, read-out: GI50, range over the panel): 1560 to 4640 nM
GI50 ([7]; Breast panel, log of concentration in mol/L causing 50% inhibition of net cell growth, read-out: mean graph midpoint (MG_MID) of Log10 GI50 (converted)): 3240 nM
LC50 ([7]; Breast panel, log of concentration leading to 50% net cell death, read-out: mean graph midpoint (MG_MID) of Log10 LC50 (converted)): 95500 nM
GI50 ([7]; five breast cancer cell lines, exposure at least 48 hrs, read-out: GI50, range over the panel): 2300 to 4670 nM
mean graph midpoint (MG_MID) of Log10 LC50 ([8]; CNS panel, log of concentration leading to 50% net cell death): 4.29
GI50 ([8]; CNS panel, log of concentration in mol/L causing 50% inhibition of net cell growth, read-out: mean graph midpoint (MG_MID) of Log10 GI50 (converted)): 3160 nM
GI50 ([8]; six CNS cancer cell lines, exposure at least 48 hrs, read-out: GI50, range over the panel): 1780 to 10500 nM
mean graph midpoint (MG_MID) of Log10 LC50 ([9]; Colon panel, log of concentration leading to 50% net cell death): 4.53
GI50 ([9]; Colon panel, log of concentration in mol/L causing 50% inhibition of net cell growth, read-out: mean graph midpoint (MG_MID) of Log10 GI50 (converted)): 2040 nM
GI50 ([9]; seven colon cancer cell lines, exposure at least 48 hrs, read-out: GI50, range over the panel): 1460 to 3400 nM
GI50 [10, 34]: 4670 nM
GI50 [10, 35]: 4680 nM
GI50 [11, 34]: 1850 nM
GI50 [11, 35]: 1860 nM
GI50 ([12]; PC-3, read-out: pGI50 (-log of molar concentration causing 50% inhibition of net cell growth) (converted)): 1950 nM
GI50 ([12]; one prostate cancer cell line (PC-3), exposure at least 48 hrs, read-out: GI50): 1950 nM
GI50 [13, 34]: 2000 nM
GI50 [13, 35]: 2000 nM
GI50 [14, 34]: 2640 nM
GI50 [14, 35]: 2630 nM
GI50 [15, 34]: 1560 nM
GI50 [15, 35]: 1550 nM
GI50 [16, 34]: 1670 nM
GI50 [16, 35]: 1660 nM
GI50 [17, 34]: 1800 nM
GI50 [17, 35]: 1820 nM
GI50 [18, 34]: 3660 nM
GI50 [18, 35]: 3630 nM
GI50 [19, 34]: 2250 nM
GI50 [19, 35]: 2240 nM
GI50 [20, 34]: 1800 nM
GI50 [20, 35]: 1820 nM
GI50 [21, 34]: 2820 nM
GI50 [21, 35]: 2820 nM
GI50 [22, 34]: 2520 nM
GI50 [22, 35]: 2510 nM
GI50 [23, 34]: 3180 nM
GI50 [23, 35]: 3160 nM
GI50 [24, 34]: 2360 nM
GI50 [24, 35]: 2340 nM
GI50 [25, 34]: 3090 nM
GI50 [25, 35]: 3090 nM
GI50 ([26]; COLO205, read-out: pGI50 (-log of molar concentration causing 50% inhibition of net cell growth) (converted)): 3390 nM
GI50 [26, 34]: 3400 nM
GI50 [27, 34]: 1260 nM
GI50 [27, 35]: 1260 nM
GI50 [28, 34]: 1780 nM
GI50 [28, 35]: 1780 nM
GI50 [29, 34]: 4580 nM
GI50 [29, 35]: 4570 nM
GI50 [30, 34]: 9610 nM
GI50 [30, 35]: 9550 nM
GI50 [31, 34]: 1480 nM
GI50 [31, 35]: 1480 nM
GI50 ([32]; SN 12C, read-out: pGI50 (-log of molar concentration causing 50% inhibition of net cell growth) (converted)): 2880 nM
GI50 [32, 34]: 2870 nM
GI50 [33, 34]: 6780 nM
GI50 [33, 35]: 6760 nM
